Measurements from patent US6531289B1, “Regulated gene expression in yeast and method of use” (Anadys Pharmaceuticals, Inc., priority 1997, dated 2003).

Assays:
ALG7 = settings: Kukuruzinska et al. 1995; cited from earlier work
[1] = test system: copper regulated ALG7 strain; assay: Drug sensitivity profiling, 96 well copper sulfate x compound dilution plate; assay type: cell-based, S. cerevisiae; settings: ALG7 copper regulated cells, 48 hours at 37° C., growth scored by eye
Procedure: (§1) In one embodiment, such drug sensitivity is analyzed utilizing the copper regulated strains of the invention according to the following non-limiting method. In a single 96 well assay plate, a serial dilution of copper sulfate is created from right to left. On the same plate a serial dilution of compound is created along the opposite axis to give the final compound and copper concentrations shown in FIG. 12. Each well is inoculated with 10^3 cells ml^−1. Growth is scored by eye after 48 hours incubation at 37° C. As the copper concentration is increased, the level of target expressed is reduced. Consequently, inhibition of growth should occur at a lower compound concentration (FIG. 13, panel a). […] (FIG. 13, panel c).
(§2) In a single 96 well assay plate, a serial dilution of copper sulfate was created from right to left. On the same plate a serial dilution of compound was created along the opposite axis to give the final compound and copper concentrations. Each well was inoculated with 10^3 cells/mL. Yeast cell growth was scored by eye after 48 hours incubation at 37° C.
(§3) Plates were setup as described above and inoculated with wild-type, copper regulated ALG7 and copper regulated CHS3 strains. CHS3 encodes chitin synthase and provides a second control. Following 48 hours incubation at 37° C., plates were examined to assess growth (FIG. 16).

[2] = test system: copper regulated CHS3 strain; assay: as above; assay type: cell-based, S. cerevisiae; settings: CHS3 copper regulated control, 48 hours at 37° C.
Procedure: as §1, §2, §3

wild-type strain = assay: as above; assay type: cell-based, S. cerevisiae; settings: wild type control, 48 hours at 37° C.
Procedure: as §1, §2, §3

[3] = test system: ALG7/alg7 heterozygous diploid S. cerevisiae strain; settings: Giaever et al.; cited from earlier work
CTY145 = settings: CTY145, after 16 hours of growth
Procedure: (§4) For assaying the effects of copper ions on recombinant yeast strains, wild type and recombinant strains are grown in 5 ml of CSM media on a roller drum incubation apparatus at 30° C. for 18 to 20 hours. Cultures are diluted to an A600(absorbance of light at 600 nm) of about 0.02 in 5 ml CSM media without or with various concentrations of CuSO4 (10 μM, 50 μM, 100 μM, 250 μM, 1 mM and 2 mM) for 18 to 20 hours. The A600 of the various samples is read and recorded.
(§5) The copper sensitivity of yeast strain CTY145 was compared with that of ZMY60 by growing each strain in the presence of increasing amounts of added copper and measuring cell number at increasing times.

ZMY60 = settings: ZMY60, after 16 hours of growth
Procedure: as §4, §5

Row | Molecule | sensitivity to tunicamycin on downregulation of ALG7 expression (ALG7) | sensitivity to compound as the copper concentration was increased [1] | sensitivity to compound as the copper concentration was increased [2] | sensitivity to compound as the copper concentration was increased (wild-type strain) | sensitivity of ALG7/alg7 heterozygous diploid strain [3] | highest concentration of copper at which the growth rate was maintained (CTY145) | highest concentration of copper at which the log-phase growth rate was maintained unaffected (ZMY60)
1 | tunicamycin | hypersensitivity | increased sensitivity | No increase in sensitivity | No increase in sensitivity | increased sensitivity |  | 
2 | O=S(=O)([O-])[O-].[Cu+2] [copper, copper sulfate] |  |  |  |  |  | 1 mM | 250 μM
